Data as given in PubChem BioAssay AID330 (DTP/NCI, 2004).
Where “and” joins values, the source holds several entries; their conditions need not be identical. Equal values may be shown once. Inconclusive results and toxic doses are left out. Rule for the calls: active = survival T/C of 150% or more; inactive = T/C below 125% in these data.

Tested on: P388 leukemia ip, CD2F1 mice, survival T/C
Experiment: NCI In Vivo Anticancer Drug Screen. Data for tumor model P388 Leukemia (intraperitoneal) in CD2F1 (CDF1) mice
Settings: endpoint: median survival time, higher = longer survival
Summary of the method: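 Mice carrying the transplanted tumor received test compound or vehicle. Survival was recorded in each group, and the value is the treated-group measurement divided by that of the vehicle-treated control group.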

[1] = dose: 50.0 mg/kg/injection, schedule: Q01DX009 (ip), vehicle: Klucel (hydroxypropylcellulose) (HPC)
[2] = dose: 100.0 mg/kg/injection, schedule: Q01DX009 (ip), vehicle: Klucel (hydroxypropylcellulose) (HPC)
[3] = dose: 50.0 mg/kg/injection, schedule: Q01DX005 (ip), vehicle: saline with Tween-80
[4] = dose: 100.0 mg/kg/injection, schedule: Q01DX005 (ip), vehicle: saline with Tween-80
[5] = dose: 200.0 mg/kg/injection, schedule: Q01DX005 (ip), vehicle: saline with Tween-80
[6] = dose: 50.0 mg/kg/injection, schedule: Q01DX005 (ip), vehicle: Klucel (hydroxypropylcellulose) (HPC)
[7] = dose: 100.0 mg/kg/injection, schedule: Q01DX005 (ip), vehicle: Klucel (hydroxypropylcellulose) (HPC)
[8] = dose: 200.0 mg/kg/injection, schedule: Q01DX005 (ip), vehicle: Klucel (hydroxypropylcellulose) (HPC)
[9] = dose: 50.0 mg/kg/injection, schedule: Q01DX009 (ip), vehicle: saline
[10] = dose: 50.0 mg/kg/injection, schedule: Q01DX009 (ip), vehicle: saline with Tween-80
[11] = dose: 100.0 mg/kg/injection, schedule: Q01DX009 (ip), vehicle: saline with Tween-80
[12] = dose: 200.0 mg/kg/injection, schedule: Q01DX009 (ip), vehicle: saline with Tween-80
[13] = dose: 400.0 mg/kg/injection, schedule: Q01DX009 (ip), vehicle: saline with Tween-80
[14] = dose: 100.0 mg/kg/injection, schedule: Q01DX001 (ip), vehicle: Klucel (hydroxypropylcellulose) (HPC)
[15] = dose: 200.0 mg/kg/injection, schedule: Q01DX001 (ip), vehicle: Klucel (hydroxypropylcellulose) (HPC)
[16] = dose: 400.0 mg/kg/injection, schedule: Q01DX001 (ip), vehicle: Klucel (hydroxypropylcellulose) (HPC)
[17] = dose: 25.0 mg/kg/injection, schedule: Q01DX009 (ip), vehicle: saline with Tween-80
[18] = dose: 100.0 mg/kg/injection, schedule: Q01DX001 (ip), vehicle: saline with Tween-80
[19] = dose: 200.0 mg/kg/injection, schedule: Q01DX001 (ip), vehicle: saline with Tween-80
[20] = dose: 400.0 mg/kg/injection, schedule: Q01DX001 (ip), vehicle: saline with Tween-80

Measured: T/C

O=C(/C=C(/SS/C(=C/C(=O)c1ccccc1)c1ccccc1)c1ccccc1)c1ccccc1
inactive: [1] 98 % of control | [2] 98 % of control | dose: 200.0 mg/kg/injection, schedule: Q01DX009 (ip), vehicle: Klucel (hydroxypropylcellulose) (HPC) 91 % of control

CC(=O)NC1=C(C#N)CCCC1
inactive: dose: 100.0 mg/kg/injection, schedule: Q04DX003 (ip), vehicle: saline 101 % of control | dose: 200.0 mg/kg/injection, schedule: Q04DX003 (ip), vehicle: saline 104 % of control | dose: 400.0 mg/kg/injection, schedule: Q04DX003 (ip), vehicle: saline 100 % of control

O=C(Nc1ccc(Cl)c(Cl)c1)NN1CCCCCC1
inactive: [3] 103 % of control | [4] 103 % of control | [5] 101 % of control

CCCC1OP(=O)(N(CCOC(C)=O)CCOC(C)=O)OCC1CC (stereo not given)
inactive: [6] 96 % of control | [7] 98 % of control | [8] 96 % of control

Nc1nc(N)c2cn[nH]c2n1
inactive: dose: 6.25 mg/kg/injection, schedule: Q01DX009 (ip), vehicle: saline 95 % of control | dose: 12.5 mg/kg/injection, schedule: Q01DX009 (ip), vehicle: saline 93 % of control | dose: 25.0 mg/kg/injection, schedule: Q01DX009 (ip), vehicle: saline 100 % of control | [9] 104 % of control

CC(C)=C1C2C=CC1C1C2C(=O)C2OC2(CO)C1O (stereo not given)
inactive: [3] 100 % of control | [4] 100 % of control | [5] 101 % of control

CC(=O)c1ccc(OCc2ccccc2)c(OCc2ccccc2)c1
inactive: [10] 115 % of control | [11] 106 % of control | [12] 95 % of control | [13] 93 % of control

CCNC(=O)OCc1c(Cl)nc2sccn12
inactive: [14] 106 % of control | [15] 107 % of control | [16] 100 % of control

CC(=O)O[C@H]1[C@@H]2c3c(ccc4c(=O)cc(-c5ccccc5)oc34)O[C@@H]2OC1(C)C
inactive: dose: 0.98 mg/kg/injection, schedule: Q01DX005 (ip), vehicle: Klucel (hydroxypropylcellulose) (HPC) 100 % of control | dose: 1.95 mg/kg/injection, schedule: Q01DX005 (ip), vehicle: Klucel (hydroxypropylcellulose) (HPC) 98 % of control | dose: 3.9 mg/kg/injection, schedule: Q01DX005 (ip), vehicle: Klucel (hydroxypropylcellulose) (HPC) 86 % of control

N#CCc1c(Cl)n(-c2ccccc2)c2ccccc12
inactive: [14] 101 % of control | [15] 93 % of control | [16] 88 % of control

CC(C)CCCC(C)C1CCC2C3CCC4CC5(C)C(CC4(C)C3CCC12C)C(=O)C5(Cl)Cl (stereo not given)
inactive: [3] 96 % of control | [4] 100 % of control | [5] 99 % of control

COc1ccc2nc(N)sc2c1
inactive: dose: 12.5 mg/kg/injection, schedule: Q01DX009 (ip), vehicle: Klucel (hydroxypropylcellulose) (HPC) 97 % of control | dose: 12.5 mg/kg/injection, schedule: Q01DX009 (ip), vehicle: saline with Tween-80 111 % of control | dose: 25.0 mg/kg/injection, schedule: Q01DX009 (ip), vehicle: Klucel (hydroxypropylcellulose) (HPC) 99 % of control | [17] 111 % of control | [1] 107 % of control | [10] 120 % of control | [2] 107 % of control

CC1=NCCN1CCNC(=O)c1ccc(C(=O)NCCN2CCN=C2C)cc1
inactive: dose: 1.88 mg/kg/injection, schedule: Q01DX005 (ip), vehicle: saline with Tween-80 105 % of control | dose: 3.75 mg/kg/injection, schedule: Q01DX005 (ip), vehicle: saline with Tween-80 100 % of control | dose: 7.5 mg/kg/injection, schedule: Q01DX005 (ip), vehicle: saline with Tween-80 100 % of control and 115 % of control

Cc1ccccc1C(=O)N1C(=O)Cc2ccccc21
inactive: [14] 97 % of control | [15] 91 % of control | [16] 90 % of control

O=C(Oc1ccc[nH]c1=O)c1cccc(Cl)c1
inactive: dose: 25.0 mg/kg/injection, schedule: Q01DX009 (ip), vehicle: distilled water + Tween-80 100 % of control | dose: 50.0 mg/kg/injection, schedule: Q01DX009 (ip), vehicle: distilled water + Tween-80 100 % of control | dose: 100.0 mg/kg/injection, schedule: Q01DX009 (ip), vehicle: distilled water + Tween-80 95 % of control | dose: 200.0 mg/kg/injection, schedule: Q01DX009 (ip), vehicle: distilled water + Tween-80 99 % of control | dose: 400.0 mg/kg/injection, schedule: Q01DX009 (ip), vehicle: distilled water + Tween-80 97 % of control

C[N+](C)(C)NP(=O)(N[N+](C)(C)C)c1ccccc1
inactive: dose: 60.0 mg/kg/injection, schedule: Q01DX005 (ip), vehicle: saline 100 % of control | dose: 120.0 mg/kg/injection, schedule: Q01DX005 (ip), vehicle: saline 106 % of control | dose: 240.0 mg/kg/injection, schedule: Q01DX005 (ip), vehicle: saline 100 % of control

OC1(c2ccccc2)CCCCCC1
inactive: [17] 113 % of control | [10] 106 % of control | [11] 106 % of control and 108 % of control

COc1ccc2[nH]c3c(c(=O)n(C)c(=O)n3C)c2c1
inactive: [6] 92 % of control | [7] 93 % of control | [8] 92 % of control

c1ccc(-c2cn3c(n2)SCC3)cc1
inactive: [14] 106 % of control | [15] 106 % of control | [16] 111 % of control

CC1OC(=S)N(c2cccc3ccccc23)C1=O (stereo not given)
inactive: [18] 93 % of control | [19] 90 % of control | [20] 94 % of control

O=S(=O)(/N=C1/c2ccccc2/C(=N/S(=O)(=O)c2ccccc2)C2CC=CCC12)c1ccccc1 (stereo not given)
inactive: dose: 6.25 mg/kg/injection, schedule: Q01DX001 (ip), vehicle: saline with Tween-80 100 % of control | dose: 12.5 mg/kg/injection, schedule: Q01DX001 (ip), vehicle: saline with Tween-80 95 % of control | dose: 25.0 mg/kg/injection, schedule: Q01DX001 (ip), vehicle: saline with Tween-80 100 % of control

COc1c2c(cc3c1C(O)=CC(=O)C3=O)OCO2
inactive: [6] 104 % of control | [7] 100 % of control | [8] 107 % of control

O=C1C(c2ccccn2)=C(O)c2ccccc21
inactive: [6] 104 % of control | [7] 93 % of control | [8] 97 % of control

C=C1C(=O)C23OC2C1CCC(=O)C1(C)CC[C@H](OC(C)=O)C(C)(C)[C@H]1CC3O (stereo not given in full)
inactive: dose: 5.0 mg/kg/injection, schedule: Q01DX005 (ip), vehicle: Klucel (hydroxypropylcellulose) (HPC) 104 % of control | dose: 10.0 mg/kg/injection, schedule: Q01DX005 (ip), vehicle: Klucel (hydroxypropylcellulose) (HPC) 109 % of control | dose: 20.0 mg/kg/injection, schedule: Q01DX005 (ip), vehicle: Klucel (hydroxypropylcellulose) (HPC) 111 % of control | dose: 40.0 mg/kg/injection, schedule: Q01DX005 (ip), vehicle: Klucel (hydroxypropylcellulose) (HPC) 110 % of control and 114 % of control

N#Cc1ccccc1-n1c(=O)c2cc3c(=O)n(-c4ccccc4C#N)c(=O)c3cc2c1=O
inactive: [17] 100 % of control and 103 % of control | [10] 95 % of control and 97 % of control | [11] 100 % of control and 103 % of control | [12] 102 % of control and 95 % of control | [13] 100 % of control and 96 % of control

O=C(c1ccccc1)c1c(-c2ccccc2)c(=O)n2c(sc3ccccc32)c1C(=O)c1ccccc1
inactive: [18] 93 % of control | [19] 100 % of control | [20] 109 % of control

CSc1nc(SC)c2c(CO)c(Br)n(Cc3ccccc3)c2n1
inactive: dose: 100.0 mg/kg/injection, schedule: Q04DX002 (ip), vehicle: saline with Tween-80 98 % of control | dose: 200.0 mg/kg/injection, schedule: Q04DX002 (ip), vehicle: saline with Tween-80 94 % of control | dose: 400.0 mg/kg/injection, schedule: Q04DX002 (ip), vehicle: saline with Tween-80 88 % of control

CC(C)N(Cc1ccccc1)S(=O)(=O)c1n[nH]c(C(C)(C)C)n1
inactive: [3] 94 % of control | [4] 86 % of control

COC(=O)C1C2CC3c4[nH]c5cc(OC)ccc5c4CCN3CC2CC(O)C1OC (stereo not given)
inactive: [6] 97 % of control | [7] 97 % of control

O=[N+]([O-])c1cnc(/C=[N+](\[O-])CCO)n1CCO
inactive: [9] 99 % of control | dose: 100.0 mg/kg/injection, schedule: Q01DX009 (ip), vehicle: saline 90 % of control | dose: 200.0 mg/kg/injection, schedule: Q01DX009 (ip), vehicle: saline 106 % of control

c1ccc(-c2ccc(-c3cn4c(n3)SCC4)cc2)cc1
inactive: [15] 91 % of control
